In publication PMC8213057, “Targeting ALK2: An Open Science Approach to Developing Therapeutics for the Treatment of Diffuse Intrinsic Pontine Glioma” (Journal of Medicinal Chemistry, 2020):

Columns and labels:
Assay in all cases: biochemical
Details in all cases: read-out: % enzyme activity, 1 μM; Run 1, Run 2
[1] = biological target: T1, LATS1 (Homo sapiens, UniProt O95835)
T1 sequence (O95835 1-1130): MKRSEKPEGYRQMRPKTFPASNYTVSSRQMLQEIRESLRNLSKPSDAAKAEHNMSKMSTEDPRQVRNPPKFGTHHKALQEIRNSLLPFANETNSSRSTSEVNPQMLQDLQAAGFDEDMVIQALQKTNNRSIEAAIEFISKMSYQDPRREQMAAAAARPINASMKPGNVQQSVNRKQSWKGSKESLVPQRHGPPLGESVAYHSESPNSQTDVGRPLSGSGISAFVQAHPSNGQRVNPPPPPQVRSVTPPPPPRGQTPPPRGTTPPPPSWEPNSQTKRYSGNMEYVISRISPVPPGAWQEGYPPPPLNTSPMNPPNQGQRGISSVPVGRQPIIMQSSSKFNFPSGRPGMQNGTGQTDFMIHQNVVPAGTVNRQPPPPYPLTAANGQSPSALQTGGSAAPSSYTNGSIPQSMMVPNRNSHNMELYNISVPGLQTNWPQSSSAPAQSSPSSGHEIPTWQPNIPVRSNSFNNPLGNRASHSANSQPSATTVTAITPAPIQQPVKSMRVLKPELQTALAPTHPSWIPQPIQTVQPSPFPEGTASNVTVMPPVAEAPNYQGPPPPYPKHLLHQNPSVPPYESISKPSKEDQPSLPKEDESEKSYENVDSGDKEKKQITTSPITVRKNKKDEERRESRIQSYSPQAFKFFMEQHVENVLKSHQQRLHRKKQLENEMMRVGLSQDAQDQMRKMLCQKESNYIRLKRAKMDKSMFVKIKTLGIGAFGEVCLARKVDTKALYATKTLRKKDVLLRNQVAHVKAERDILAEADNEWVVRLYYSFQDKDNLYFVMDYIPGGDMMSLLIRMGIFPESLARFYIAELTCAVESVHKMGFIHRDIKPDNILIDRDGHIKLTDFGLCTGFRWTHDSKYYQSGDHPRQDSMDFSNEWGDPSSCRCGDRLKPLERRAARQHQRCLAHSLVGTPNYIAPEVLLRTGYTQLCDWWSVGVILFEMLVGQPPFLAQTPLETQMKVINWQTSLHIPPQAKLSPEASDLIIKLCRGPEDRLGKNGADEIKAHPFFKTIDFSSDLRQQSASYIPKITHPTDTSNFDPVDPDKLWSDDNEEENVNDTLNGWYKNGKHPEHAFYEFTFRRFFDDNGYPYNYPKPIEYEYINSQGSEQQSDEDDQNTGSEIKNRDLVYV

[2] = biological target: T2, TNK1 (Homo sapiens, UniProt Q13470)
T2 sequence (Q13470 1-666): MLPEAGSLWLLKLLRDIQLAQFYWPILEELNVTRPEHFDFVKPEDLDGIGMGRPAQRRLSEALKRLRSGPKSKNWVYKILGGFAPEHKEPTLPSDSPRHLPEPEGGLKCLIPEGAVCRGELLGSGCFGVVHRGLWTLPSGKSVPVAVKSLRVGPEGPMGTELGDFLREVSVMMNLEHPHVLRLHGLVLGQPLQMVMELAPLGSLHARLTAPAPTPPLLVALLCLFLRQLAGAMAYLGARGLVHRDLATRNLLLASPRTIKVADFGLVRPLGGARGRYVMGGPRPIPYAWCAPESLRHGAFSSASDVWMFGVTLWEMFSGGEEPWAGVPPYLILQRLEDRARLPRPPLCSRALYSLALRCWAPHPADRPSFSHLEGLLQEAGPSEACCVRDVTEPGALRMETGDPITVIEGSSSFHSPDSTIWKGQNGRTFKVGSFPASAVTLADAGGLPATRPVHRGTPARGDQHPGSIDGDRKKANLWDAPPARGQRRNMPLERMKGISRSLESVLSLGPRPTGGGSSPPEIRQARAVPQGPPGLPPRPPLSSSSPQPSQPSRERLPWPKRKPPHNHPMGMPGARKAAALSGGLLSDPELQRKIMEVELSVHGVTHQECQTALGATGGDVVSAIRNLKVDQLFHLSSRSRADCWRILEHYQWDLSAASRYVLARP

[3] = biological target: T3, PKCzeta (Homo sapiens, UniProt Q05513)
T3 sequence (Q05513 1-592): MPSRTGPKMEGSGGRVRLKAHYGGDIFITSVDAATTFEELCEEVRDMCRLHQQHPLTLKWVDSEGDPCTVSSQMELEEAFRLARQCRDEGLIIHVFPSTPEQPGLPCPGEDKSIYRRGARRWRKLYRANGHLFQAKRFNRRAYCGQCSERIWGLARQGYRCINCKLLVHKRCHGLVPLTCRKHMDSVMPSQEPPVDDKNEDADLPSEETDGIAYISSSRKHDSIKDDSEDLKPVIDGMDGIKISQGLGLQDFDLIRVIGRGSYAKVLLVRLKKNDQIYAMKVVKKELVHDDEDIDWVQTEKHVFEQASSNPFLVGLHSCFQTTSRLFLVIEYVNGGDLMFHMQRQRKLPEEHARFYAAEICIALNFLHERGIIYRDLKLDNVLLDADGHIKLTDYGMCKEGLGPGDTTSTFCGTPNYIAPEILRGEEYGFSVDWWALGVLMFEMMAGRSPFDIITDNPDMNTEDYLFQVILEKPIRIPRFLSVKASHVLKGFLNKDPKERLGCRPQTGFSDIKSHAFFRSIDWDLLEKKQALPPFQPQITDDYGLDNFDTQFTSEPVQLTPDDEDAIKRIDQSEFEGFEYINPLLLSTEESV

`COc1cc(-c2cncc(-c3ccc(N4C[C@@H](C)N(C)[C@@H](C)C4)cc3)c2C)cc(F)c1C(N)=O` [Compound 26c, 2-Fluoro-6-methoxy-4-(4-methyl-5-(4-((3R,5S)-3,4,5-trimethylpiperazin-1-yl)phenyl)pyridin-3-yl)benzamide] gave a remaining activity at 1 µM [1] of 102%, a remaining activity at 1 µM [2] of 98.6% and a remaining activity at 1 µM [3] of 92.5%.
In the case of `COc1cc(-c2cncc(-c3ccc(N4CCN(C)CC4)cc3)c2C)cc(F)c1C(N)=O` [Compound 26a, 2-Fluoro-6-methoxy-4-(4-methyl-5-(4-(4-methylpiperazin-1-yl)phenyl)pyridin-3-yl)benzamide], the remaining activity at 1 µM [1] is reported as 97.4%, the remaining activity at 1 µM [2] is reported as 105% and the remaining activity at 1 µM [3] is reported as 91.2%.
